Test results as given in ChEMBL document CHEMBL2434833, “Optimization of benzodiazepinones as selective inhibitors of the X-linked inhibitor of apoptosis protein (XIAP) second baculovirus IAP repeat (BIR2) domain” (J Med Chem, 2013).

Experiments:
[1] = Tmax in C57 mouse at 10 mg/kg, po; type: ADME, organism-based; set-up: dose 10 mg/kg, route oral; settings: in vivo
[2] = Oral bioavailability in C57 mouse at 10 mg/kg; type: ADME, organism-based; settings: in vivo
[3] = AUC in C57 mouse at 10 mg/kg, po; type: ADME, organism-based; set-up: dose 10 mg/kg, route oral; settings: plasma
[4] = Cmax in C57 mouse at 10 mg/kg, po; type: ADME, organism-based; set-up: dose 10 mg/kg, route oral; settings: in vivo
Liver microsomes = settings: human, up to 10 µM
[5] = Drug uptake in tumor of nude mouse xenografted with human LOX cells at 200 mg/kg, po measured at 8 hrs; type: ADME, organism-based, Neoplasm; set-up: dose 200 mg/kg, route oral; settings: read-out: Drug uptake
[6] = Plasma concentration in nude mouse xenografted with human LOX cells at 200 mg/kg, po measured at 8 hrs; type: ADME, organism-based; set-up: dose 200 mg/kg, route oral
[7] = Drug uptake in tumor of nude mouse xenografted with human LOX cells at 100 mg/kg, po measured at 8 hrs; type: ADME, organism-based, Neoplasm; set-up: dose 100 mg/kg, route oral; settings: read-out: Drug uptake
[8] = Plasma concentration in nude mouse xenografted with human LOX cells at 100 mg/kg, po measured at 8 hrs; type: ADME, organism-based; set-up: dose 100 mg/kg, route oral

`CN[C@@H](C)C(=O)N[C@@H]1C(=O)N(Cc2c(OC)ccc3ccccc23)c2ccc(C#N)cc2N(C(C)=O)[C@H]1C.Cl` gave a Tmax [1] of 4 h, a bioavailability [2] of 8% and an AUC [3] of 5980 ng·h/mL. The Cmax [4] was 873 ng/mL and the Stability (Liver microsomes) was “Stable”.

In the case of `CN[C@@H](C)C(=O)N[C@@H]1C(=O)N(Cc2c(C)ccc3ccccc23)c2ccc(C#N)cc2N(C(C)=O)[C@H]1C.Cl`, the concentration at 8 h [5] is reported as 7.7 µM, the concentration at 8 h [6] is reported as 5 µM and the Tmax [1] is reported as 0.25 h. For the same compound, the bioavailability [2] was 28%, the AUC [3] was 7870 ng·h/mL and the Cmax [4] was 823 ng/mL.

Compound `CN[C@@H](C)C(=O)N[C@H](C(=O)N1CCC[C@H]1c1nc(C(=O)c2ccc(F)cc2)cs1)C1CCCCC1` [LCL-161] has a concentration at 8 h [7] of 18.4 µM and a concentration at 8 h [8] of 3.3 µM.
